# Patent publication US20120165384A1, “INHIBITION OF HISTONE ACETYLTRANSFERASES BY CTK7A AND METHODS THEREOF” (JAWAHARLAL NEHRU CENTRE FOR ADVANCED SCIENTIFIC RESEARCH, priority 2009, published 2012)
# What was measured:
# PCAF = target: T1, PCAF (Homo sapiens, UniProt Q92831); experiment: PCAF autoacetylation assay in vitro; type: biochemical; conditions: concentration dependent
# T1 construct: Recombinant baculovirus expressing full-length FLAG-tagged CARM1,CBP and PCAF; FLAG; made in house; host or cells: baculovirus-infected Sf21 cells
# CBP = target: T2, CBP (Homo sapiens, UniProt Q92793); experiment: HAT assay with recombinant CBP; type: biochemical
# T2 construct: Recombinant baculovirus expressing full-length FLAG-tagged CARM1,CBP and PCAF; FLAG; made in house; host or cells: baculovirus-infected Sf21 cells
# Experimental: (§1) Recombinant baculovirus expressing full-length FLAG-tagged CARM1,CBP and PCAF were purified by immunoaffinity chromatography using M2-agarose beads followed by elution with FLAG peptide. Baculovirus-expressed full-length hexahistidine-tagged p300, and G9a were purified using Ni-NTA affinity chromatography as described previously^30.
# HAT gel fluorography/autoradiography assays were performed as previously reported^30. Kinetic analysis of p300 HAT inhibition was performed as reported earlier^31 in the presence of (0, 30 and 50 μM) CTK7A. The obtained values were plotted as a lineweaver burk plot using Graphpad Prism software. For p300 Autoacetylation assay, reactions of p300 full length (80 ng) were carried out in HAT assay buffer at 30° C. for 10 minutes with or without the protein (NPM1) followed by addition of 1 μl of 4.7 Ci/mmol [^3H] acetyl CoA (NEN-PerkinElmer) and were further incubated for another 10 min in a 30 μl reaction. GAPDH was used as positive control. The radio-labeled acetylated p300 were processed by fluorography followed by autoradiography.
# G9a = target: T3, G9a (Homo sapiens, UniProt Q96KQ7); experiment: Histone methyltransferase (HMTase) assay, G9a; type: biochemical; conditions: even at 100 μM
# T3 construct: hexahistidine; made in house; host or cells: baculovirus-infected Sf21 cells
# T3 sequence (Q96KQ7 1-1210): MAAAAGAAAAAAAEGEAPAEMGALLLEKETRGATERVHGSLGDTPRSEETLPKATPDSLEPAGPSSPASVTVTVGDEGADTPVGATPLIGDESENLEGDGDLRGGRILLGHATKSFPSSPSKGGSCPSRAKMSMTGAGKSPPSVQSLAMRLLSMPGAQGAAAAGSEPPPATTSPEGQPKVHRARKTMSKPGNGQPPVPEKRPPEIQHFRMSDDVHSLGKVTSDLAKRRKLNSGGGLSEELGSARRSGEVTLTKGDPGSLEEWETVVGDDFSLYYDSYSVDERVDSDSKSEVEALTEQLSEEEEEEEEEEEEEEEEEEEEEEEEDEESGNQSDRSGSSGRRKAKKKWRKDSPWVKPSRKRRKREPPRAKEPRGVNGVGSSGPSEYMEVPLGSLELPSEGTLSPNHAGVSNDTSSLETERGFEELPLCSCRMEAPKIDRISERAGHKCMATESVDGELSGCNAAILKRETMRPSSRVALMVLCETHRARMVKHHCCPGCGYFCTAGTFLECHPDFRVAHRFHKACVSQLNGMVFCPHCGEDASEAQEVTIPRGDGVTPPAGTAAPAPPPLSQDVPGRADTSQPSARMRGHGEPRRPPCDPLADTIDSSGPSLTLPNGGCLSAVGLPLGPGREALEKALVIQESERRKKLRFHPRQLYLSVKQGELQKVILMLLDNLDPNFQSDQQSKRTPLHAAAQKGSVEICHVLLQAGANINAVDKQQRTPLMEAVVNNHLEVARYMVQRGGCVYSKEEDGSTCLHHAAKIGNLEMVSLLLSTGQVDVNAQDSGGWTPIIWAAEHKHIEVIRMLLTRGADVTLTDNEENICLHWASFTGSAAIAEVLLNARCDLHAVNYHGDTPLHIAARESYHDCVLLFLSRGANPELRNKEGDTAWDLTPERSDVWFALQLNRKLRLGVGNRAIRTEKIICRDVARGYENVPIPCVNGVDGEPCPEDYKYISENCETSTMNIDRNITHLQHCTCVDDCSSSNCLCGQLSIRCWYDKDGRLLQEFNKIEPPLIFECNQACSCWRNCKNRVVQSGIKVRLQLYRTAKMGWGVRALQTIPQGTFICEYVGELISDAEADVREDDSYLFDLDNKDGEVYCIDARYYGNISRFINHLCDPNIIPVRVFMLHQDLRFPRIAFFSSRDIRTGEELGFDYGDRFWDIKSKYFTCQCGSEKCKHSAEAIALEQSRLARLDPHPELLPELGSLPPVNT
# Experimental: as §1
# The deacetylation assay was performed as per standard protocol^31. For SirT2 deacetylase assay, 50 ng of bacterially expressed, recombinant enzyme was added in the presence or absence of cofactor NAD^+. HMTase was performed as reported earlier^31.
# Solubility test in water = type: physicochemical
# Experimental: To a solution of curcumin in methanol (10 mg, 0.027 Mmol) […]. After incubation for 24 h, the solvent was evaporated in vacuum. The residue […] was purified with repeated recrystallization and filtration method using TLC (CHCl3/MeOH=4:1; Rf=0.5). This gave CTK7 as a dark orange powder (7.18 mg, 55%) which was analyzed by H^1 NMR, Melting point test, Solubility test and ESI-MS.
# To a solution of CTK7 in methanol (50 mg, 0.1031 mmol), (10 ml) of Sodium ethoxide was added ([…], 0.1175 mmol) and the reaction mixture was stirred at room temperature for 90 minutes. The solvent was evaporated in vacuum and the residue was washed with hexane, diethyl ether and ethyl acetate. Product was confirmed through H^1 NMR, Solubility test, melting point.
# [1] = system: H3 acetylation at the cyclin E promoter in KB cells; experiment: ChIP assay, acetylated H3 at cyclin E promoter; type: cell-based; conditions: 24 hrs treatment
# Experimental: The pull-downs for ChIP assay was performed using anti-acetylated H3 (H3AcK9AcK14) (Santa Cruz) antibody. KB cells were maintained in DMEM supplemented with 10% FBS were treated with CTK7A and cells were grown for 24 hrs. For ChIP assay cells were processed as described elsewhere^47. The pulldown was done using antibody against the above antibody and the immunoprecipitated samples were deproteinized and ethanol-precipitated to recover the DNA. Real-time PCR analysis was performed using primers for the cyclin E promoter region. PCR primers for the cyclin E promoter region were […]
# T1 sequence (Q92831 whole entry, species assumed): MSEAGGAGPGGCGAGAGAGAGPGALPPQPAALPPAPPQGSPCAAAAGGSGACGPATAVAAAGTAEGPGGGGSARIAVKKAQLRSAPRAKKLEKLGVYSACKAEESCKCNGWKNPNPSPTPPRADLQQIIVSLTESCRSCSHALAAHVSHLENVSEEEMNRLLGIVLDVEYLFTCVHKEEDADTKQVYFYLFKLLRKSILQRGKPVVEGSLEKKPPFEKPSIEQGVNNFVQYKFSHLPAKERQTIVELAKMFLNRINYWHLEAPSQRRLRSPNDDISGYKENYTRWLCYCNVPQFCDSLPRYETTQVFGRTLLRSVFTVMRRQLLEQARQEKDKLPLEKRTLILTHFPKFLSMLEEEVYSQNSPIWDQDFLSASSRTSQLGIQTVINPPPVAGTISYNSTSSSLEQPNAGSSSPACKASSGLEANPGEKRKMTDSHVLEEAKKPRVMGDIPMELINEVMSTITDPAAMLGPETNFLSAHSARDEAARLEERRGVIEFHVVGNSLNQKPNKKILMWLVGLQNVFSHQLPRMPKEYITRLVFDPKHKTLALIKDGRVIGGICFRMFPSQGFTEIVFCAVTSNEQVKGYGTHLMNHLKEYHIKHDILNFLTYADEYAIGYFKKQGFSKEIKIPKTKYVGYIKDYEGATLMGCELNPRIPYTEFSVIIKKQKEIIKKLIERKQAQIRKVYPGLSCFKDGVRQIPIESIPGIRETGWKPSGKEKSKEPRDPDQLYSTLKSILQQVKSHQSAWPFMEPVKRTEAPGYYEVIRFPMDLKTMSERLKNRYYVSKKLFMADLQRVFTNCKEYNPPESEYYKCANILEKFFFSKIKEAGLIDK
# T2 sequence (Q92793 whole entry): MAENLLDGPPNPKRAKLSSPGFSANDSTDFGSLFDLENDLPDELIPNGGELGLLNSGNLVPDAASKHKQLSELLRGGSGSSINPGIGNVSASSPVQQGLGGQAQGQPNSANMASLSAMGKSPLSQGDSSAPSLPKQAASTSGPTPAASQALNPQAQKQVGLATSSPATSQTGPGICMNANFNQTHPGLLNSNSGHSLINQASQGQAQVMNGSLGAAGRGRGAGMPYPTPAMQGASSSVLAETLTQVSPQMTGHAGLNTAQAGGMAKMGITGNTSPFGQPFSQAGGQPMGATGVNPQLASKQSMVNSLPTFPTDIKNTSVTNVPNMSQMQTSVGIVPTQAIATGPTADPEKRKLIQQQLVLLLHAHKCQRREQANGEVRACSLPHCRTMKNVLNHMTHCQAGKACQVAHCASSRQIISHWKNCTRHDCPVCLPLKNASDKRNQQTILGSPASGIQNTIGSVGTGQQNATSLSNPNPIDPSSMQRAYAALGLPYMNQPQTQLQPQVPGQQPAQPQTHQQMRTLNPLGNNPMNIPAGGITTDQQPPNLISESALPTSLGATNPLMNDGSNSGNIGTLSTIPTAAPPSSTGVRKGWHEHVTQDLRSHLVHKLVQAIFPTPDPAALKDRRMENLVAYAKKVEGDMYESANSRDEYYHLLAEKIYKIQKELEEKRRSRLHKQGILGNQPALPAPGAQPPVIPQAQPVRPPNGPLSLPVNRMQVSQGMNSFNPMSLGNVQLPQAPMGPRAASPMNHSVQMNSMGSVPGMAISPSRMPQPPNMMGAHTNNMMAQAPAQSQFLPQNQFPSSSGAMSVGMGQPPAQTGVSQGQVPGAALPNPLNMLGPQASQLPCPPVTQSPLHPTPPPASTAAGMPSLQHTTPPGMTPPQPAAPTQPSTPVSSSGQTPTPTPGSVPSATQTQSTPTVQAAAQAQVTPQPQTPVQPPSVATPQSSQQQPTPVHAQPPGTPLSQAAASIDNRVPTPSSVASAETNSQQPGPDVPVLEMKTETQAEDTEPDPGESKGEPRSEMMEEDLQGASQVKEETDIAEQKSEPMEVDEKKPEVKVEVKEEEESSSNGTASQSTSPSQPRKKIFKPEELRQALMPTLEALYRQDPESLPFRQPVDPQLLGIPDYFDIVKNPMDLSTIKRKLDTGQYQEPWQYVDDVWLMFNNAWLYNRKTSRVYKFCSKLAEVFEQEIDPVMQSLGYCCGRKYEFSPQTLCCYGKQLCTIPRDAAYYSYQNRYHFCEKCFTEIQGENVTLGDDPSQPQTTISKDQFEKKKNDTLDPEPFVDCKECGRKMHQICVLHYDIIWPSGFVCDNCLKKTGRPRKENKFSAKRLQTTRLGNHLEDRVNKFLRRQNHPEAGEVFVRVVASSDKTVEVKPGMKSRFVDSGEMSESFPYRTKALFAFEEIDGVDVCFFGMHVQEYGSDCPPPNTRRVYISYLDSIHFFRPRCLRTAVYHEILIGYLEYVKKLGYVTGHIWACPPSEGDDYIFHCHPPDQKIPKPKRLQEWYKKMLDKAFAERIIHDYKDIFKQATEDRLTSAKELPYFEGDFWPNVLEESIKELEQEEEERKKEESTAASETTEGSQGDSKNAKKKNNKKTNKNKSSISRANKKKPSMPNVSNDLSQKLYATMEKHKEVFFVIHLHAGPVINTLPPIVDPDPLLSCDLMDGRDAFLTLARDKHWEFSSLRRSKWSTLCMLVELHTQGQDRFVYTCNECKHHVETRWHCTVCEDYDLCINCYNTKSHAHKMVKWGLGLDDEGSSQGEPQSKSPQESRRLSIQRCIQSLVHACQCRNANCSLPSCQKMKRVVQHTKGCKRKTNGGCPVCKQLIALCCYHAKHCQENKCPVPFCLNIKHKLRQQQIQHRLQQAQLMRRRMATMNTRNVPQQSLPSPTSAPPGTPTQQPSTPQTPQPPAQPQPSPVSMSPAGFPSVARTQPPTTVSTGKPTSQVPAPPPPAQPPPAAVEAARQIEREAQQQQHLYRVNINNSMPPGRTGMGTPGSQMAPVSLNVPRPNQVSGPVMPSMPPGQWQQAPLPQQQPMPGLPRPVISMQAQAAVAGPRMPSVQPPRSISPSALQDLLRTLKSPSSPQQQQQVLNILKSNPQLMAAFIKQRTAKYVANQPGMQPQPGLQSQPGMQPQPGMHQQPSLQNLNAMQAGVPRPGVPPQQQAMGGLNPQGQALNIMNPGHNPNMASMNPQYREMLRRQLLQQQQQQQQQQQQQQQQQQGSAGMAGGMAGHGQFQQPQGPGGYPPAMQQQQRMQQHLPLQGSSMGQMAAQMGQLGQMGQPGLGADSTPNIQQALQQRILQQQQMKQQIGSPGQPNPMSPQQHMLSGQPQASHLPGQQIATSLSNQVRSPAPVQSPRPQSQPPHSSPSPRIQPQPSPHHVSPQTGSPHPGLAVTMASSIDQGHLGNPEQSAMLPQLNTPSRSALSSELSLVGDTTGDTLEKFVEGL
compound,measurement,setting,value
"COc1cc([O-])cc(C=CC2=NN(c3ccc(C(=O)[O-])cc3)C(C=Cc3cc([O-])cc(OC)c3)C2)c1.[Na+].[Na+].[Na+] (centres unmarked) [CTK7A, Sodium 4-(3,5-bis(3-methoxy-5-oxidostyryl)-4,5dihydro-1H-pyrazole-1-yl)benzoate]",inhibition of PCAF autoacetylation,PCAF,inhibit
same,inhibition of CBP HAT activity,CBP,inhibit
same,effect on G9a activity,G9a,unaffected
same,solubility in water,Solubility test in water,Soluble
same,acetylation of H3 at the cyclin E promoter,[1],inhibited
